Assay [1] deals with HDAC. The assay is described as follows: Histone Deacetylase Assay Kit, inhibition by butyrate isoforms. The conditions noted are these: Histone Deacetylase Assay Kit (Upstate), FIG. 8.
From the text: Several isoforms of butyrate were purchased (Sigma Aldrich Chemicals, St. Louis, Mo.) and tested for inhibitory activity of HDAC, using a Histone Deacetylase Assay Kit (Upstate Biotechnology, Lake Placid, N.Y.).
For assay [2], the system named is HDAC. The assay is described as follows: Histone deacetylase assay on muscle nuclear extracts of treated mice. The conditions noted are these: TSA-treated mice on HFD, positive control. It counts as in vivo, mouse. As for the experimental part: Histone deacetylase assay were conducted according to the instruction from the manufacturer (#17-320, Upstate). Briefly, 10 ug of muscle nuclear extract (as an enzyme) was incubated with [3H]-acetyl CoA (#TRK688, Amersham) radio labeled histone H4 peptide (25,000 CPM, as a substrate) at 37° C. for 12 hours by shaking Released [3H]-acetate was measured using a scintillation counter. The nuclear extract was prepared according to a protocol described elsewhere (17). The muscle tissues were collected and snap-frozen in liquid nitrogen within 2 min of cervical dislocation of mice. Tissue samples were stored at −80° C. until further processing. The muscle sample of 200˜300 mg was cut into small pieces on dry ice and homogenized in 1 ml of lysate buffer. After centrifugation at 10,000 rpm for 1 minute at 4° C., the nucleus was pelleted and collected. After being washed, the nucleus pellet was treated with extraction buffer. The supernatant was collected for nuclear protein after centrifugation at 14,000 rpm for 5 minutes at 4° C.
Without wishing to be bound by this theory, one activity of butyrate could be related to inhibition of HDAC. Sodium butyrate inhibits the class I and class II histone deacetylases (HDACs). To test this possibility, HDAC activity was examined in the skeletal muscle of mice at 16 weeks on HFD (FIG. 7G). The assay was conducted with the nuclear extracts of muscle samples. […]

Assay [3] concerns C57BL/6J mice on high fat diet. The assay is described as follows: TSA in HFD-fed mice (body weight, ITT, insulin signaling, muscle fiber). The conditions noted are these: TSA 0.6 ug/kg/day i.p. It is filed as in vivo, mouse. On the procedure:
Sodium butyrate was administrated through dietary supplementation. Sodium butyrate (#303410, Sigma) was incorporated into the HFD evenly through blending the diet and sodium butyrate together at 400 rpm in a food processor. Sodium butyrate (50 g) was used in 1 kg diet to reach a dose of 5% w/w. The sodium butyrate containing diet was pelleted and stored in a −20° C. freezer. Trichostatin A (TSA) (T-1052, A.G. Scientific Inc. San Diego, Calif.) was dissolved in DMSO, and diluted in 0.9% saline at 2:98 ratio. The TSA solution (200 ul) was administrated by intra-peritoneal (i.p.) injection to reach a dose of […]. The control mice were administrated with the same volume of vehicle. 50 ml of tributyrin (#113026, Sigma) was incorporated into one kilogram of Chow diet in powder to reach a dose of 5% w/w in mice.
Trichostatin A (TSA) is a well-established HDAC inhibitor that is frequently used in the study of HDACs. The data presented above indicate that the metabolic activity of butyrate may be in part related to inhibition of HDACs. TSA activity was examined in the same model of murine obesity. TSA was administrated through daily i.p. injection during HFD feeding to C57BL/6J mice. The control mice were injected with an identical volume of PBS.
The mice at 5 weeks in age were fed HFD to induce obesity, and TSA was administrated at the dose of 0.6 ug/kg/day. The effects of TSA treatment were tested after 12-13 weeks. […] FIG. 11C indicates the insulin signaling in the gastrocnemius muscle. The muscle was isolated after insulin (0.75 U/kg) injection for 30 minutes and used to prepare whole cell lysate for immunoblot. IRS-1 and Akt were examined for tyrosine (Y632) and serine (S473) phosphorylation.
In addition, the vastus laterais muscle was isolated from the mice at 13 weeks on HFD, and used to make serial cryostat sections of muscle. The muscle slides made from vastus lateralis, gastrocnemius (gastr.) and soleus muscle were stained with antibody against the type I myosin heavy chain in the oxidative fiber. The photograph was taken at 20× magnification. The whole cell lysate was prepared from gastrocnemius muscle and analyzed in an immunoblot. PGC-1α, type I myosin heavy chain (Myosin) and myoglobin were blotted with specific antibodies, and the results shown in FIG. 11D. The results in FIGS. 11A-11D are the mean±SE (n=8 in each group). *P<0.05 (vs. control).

In assay [4] the test system is C57BL/6J mice on chow diet. Put plainly: Amyl butyrate in mice on chow diet for 4 months. The following applies: amyl butyrate 5 g/kg BW/day in chow diet. It counts as in vivo, mouse. As for the experimental part: Amyl butyrate was administrated at 5 g/kg BW/day in C57BL/6J mice for 4 months. The amyl butyrate was added to the chow diet. […] FIGS. 14B and 14C show the body fat and muscle content measured by NMR as described above. […] In FIGS. 14A-14E, values are the mean±SE (n=7). *P<0.05, **P<0.001 compared to the control by Student's t test.

A further assay deals with ob/ob mice. Put plainly: Tributyrin in ob/ob genetically obese mice. It is filed as in vivo, mouse. The following applies: tributyrin 5 g/kg body weight/day in chow diet. As for the experimental part:
Male C57BL/6J (4 weeks in age) and ob/ob mice (4 weeks in age) were purchased from the Jackson Laboratory (Bar Harbor, Me.). After one week quarantine, the C57BL/6J mice were fed on the high fat diet (HFD, D12331, Research Diets, New Brunswick, N.J.), which contains 58% calories in fat. The ob/ob mice were fed on Chow diet (5001, Lab Diet) that contains 13.4% calories in fat. All of the mice were housed in the animal facility with a 12:12-h light-dark cycle and constant temperature (22-24° C.). The mice were free to access water and diet. All procedures were performed in accordance with National Institute of Health guidelines for the care and use of animals and approved by the Institute Animal Care and Use Committee at the Pennington Biomedical Research Center.
Sodium butyrate was administrated through dietary supplementation. Sodium butyrate (#303410, Sigma) was incorporated into the HFD evenly through blending the diet and sodium butyrate together at 400 rpm in a food processor. Sodium butyrate (50 g) was used in 1 kg diet to reach a dose of 5% w/w. The sodium butyrate containing diet was pelleted and stored in a −20° C. freezer. […]
To test effect of different forms of butyric acid, tributyrin was used in the ob/ob genetically obese mice model. […] After 2 weeks, body weight was measured and an insulin tolerance test was given. […]

As for `CC(C)C(O)C(=O)O` (stereo not shown) [2-hydroxy-3-methylbutanoic acid], the “inhibitory activity of HDAC” value with HDAC [1] is listed as “inhibited HDAC”.

On to `CC(/C=C/C(=O)NO)=C\[C@@H](C)C(=O)c1ccc(N(C)C)cc1` [TSA, Trichostatin A], for which, in the assay with HDAC [2], the “HDAC activity in skeletal muscle” value is reported as “decreased”. For the same molecule, the “body weight, less than control” value in assay [3] (12 weeks on HFD) turned out to be 16%. In addition, in assay [3] (12 weeks on HFD, 4 hour fast), the “insulin tolerance (ITT)” value was “significantly improved”. Also, in assay [3] (13 weeks on HFD), the “expression of type I myosin heavy chain in gastrocnemius and soleus (histology)” value is given as “increased”; the “oxidative fiber ratio in skeletal muscle” value is listed as “increased”. Besides, the “insulin-induced signaling (IRS-1 Y632, Akt S473 phosphorylation) in gastrocnemius muscle” value in assay [3] (30 minutes after insulin 0.75 U/kg) is on record as “significantly improved”. In assay [3] (immunoblot), the “PGC-1α protein in gastrocnemius muscle” value is reported as “all increased”, the “myoglobin protein in gastrocnemius muscle” value is “all increased” and the “type I myosin heavy chain protein in gastrocnemius muscle” value was “all increased”.

Take `CCCC(=O)OC(C)c1ccccc1` (stereo not shown) [a-methylbenzyl butyrate]: in the assay on HDAC [1], the “inhibitory activity of HDAC” value is “inhibited HDAC”.

For `CCCCCOC(=O)CCC` [amyl butyrate], in assay [4], the body weight gain result is given as “prevented body weight gain”; the “insulin resistance (fasting glucose and ITT)” value is given as “protected the mice from insulin resistance”. For the same molecule, in assay [4] (NMR), the body fat gain result is “prevented fat gain” and the lean body mass entry is reported as “without affecting lean body mass”. Further, the “inhibitory activity of HDAC” value in the assay on HDAC [1] is “inhibited HDAC”.

With `CCCC(=O)OCc1ccccc1` [benzyl butyrate], the “inhibitory activity of HDAC” value in the assay on HDAC [1] was “inhibited HDAC”.

Regarding `CCCCOC(=O)CCC` [butyl butyrate], the “inhibitory activity of HDAC” value in the assay on HDAC [1] is listed as “inhibited HDAC”.

`CCCCCCCOC(=O)CCC` [heptyl butyrate]: in the assay with HDAC [1], the “inhibitory activity of HDAC” value was “inhibited HDAC”.

Take `CCCCCCOC(=O)CCC` [hexyl butyrate]: the “inhibitory activity of HDAC” value in the assay on HDAC [1] was “inhibited HDAC”.

On to `CCCC(=O)OCC(C)C` [isobutyl butyrate], for which the “inhibitory activity of HDAC” value with HDAC [1] was “inhibited HDAC”.

On to `CCCC(=O)OC` [methyl butyrate], for which the “inhibitory activity of HDAC” value in the assay with HDAC [1] was “inhibited HDAC”.

In the case of `CCCC(=O)OCCc1ccccc1` [pennetyl butyrate], the “inhibitory activity of HDAC” value in the assay on HDAC [1] was “inhibited HDAC”.

Consider `CCCC(=O)OCC(COC(=O)CCC)OC(=O)CCC` [tributyrin], for which the weight gain result in the assay with ob/ob mice (2 weeks, vs control) is “significantly reduced”. Moreover, the “insulin sensitivity (ITT)” value in the assay with ob/ob mice (4 hours fasting) is listed as “preserved”.

The values are drawn from patent US20130123358A1, “Metabolic Benefits to Butyrate as a Chronic Diet Supplement” (priority 2009, published 2013).
